# Measured values as given in article PMC11052784 (European Journal of Drug Metabolism and Pharmacokinetics, 2024).
# Where two headings read alike, the source gives them in different places.
# Columns and labels:
# [1] = test system: pregnane X receptor (PXR) pathway; test: Induction via the pregnane X receptor pathway; type: in vitro ADME; conditions: data on file
# CYP3A [2] = test: Oral contraceptive DDI study; type: in vivo, human
# [3] = after administration as tablet; cited from earlier work
# CYP3A [4] = test: Midazolam DDI study
# CYP2B6 = conditions: after multiple doses of abrocitinib 200 mg QD
# CYP2C19 [5] = conditions: cited from earlier work
# Safety = type: in vivo, human; conditions: coadministered with midazolam, caffeine, efavirenz, omeprazole or oral contraceptives; healthy adult participants
# CYP2C19 [6] = biological target: T1, CYP2C19 (Homo sapiens, UniProt P33261); type: in vitro ADME; conditions: HLM
# T1 sequence (P33261 whole entry): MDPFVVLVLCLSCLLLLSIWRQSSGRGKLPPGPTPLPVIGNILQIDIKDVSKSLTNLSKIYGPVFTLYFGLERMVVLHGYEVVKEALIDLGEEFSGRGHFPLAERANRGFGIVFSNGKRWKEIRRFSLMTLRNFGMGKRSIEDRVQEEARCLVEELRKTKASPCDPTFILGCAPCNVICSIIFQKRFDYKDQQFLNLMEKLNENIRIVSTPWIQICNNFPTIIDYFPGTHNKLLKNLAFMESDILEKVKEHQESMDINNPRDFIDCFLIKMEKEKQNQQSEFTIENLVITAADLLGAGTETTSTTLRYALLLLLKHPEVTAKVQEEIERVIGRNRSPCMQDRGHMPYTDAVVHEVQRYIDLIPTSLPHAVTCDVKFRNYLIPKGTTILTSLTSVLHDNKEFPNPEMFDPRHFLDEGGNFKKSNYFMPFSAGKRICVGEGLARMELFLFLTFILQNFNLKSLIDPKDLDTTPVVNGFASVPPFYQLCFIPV
# CYP1A2/2B6/2C19/3A = test: Reversible inhibition in human liver microsomes; type: in vitro ADME; conditions: HLM
# CYP3A4/5 = test: Time-dependent inhibition; type: in vitro ADME, human; conditions: HLM; for TDI of CYP3A after 30-min preincubation: incubation concentration ≥ 99.5 µM
# CYP2C19 [7] = biological target: T1, CYP2C19
# CYP1A2 = conditions: with abrocitinib 200 mg QD
# [8] = after multiple doses of abrocitinib 200 mg QD
# [9] = abrocitinib 200 mg QD with omeprazole 10 mg single dose
# [10] = with multiple doses of abrocitinib vs LN alone
# [11] = multiple doses of abrocitinib 200 mg QD, Day 7 vs midazolam alone
# [12] = with abrocitinib 200 mg QD on Day 2 vs midazolam alone
smiles,measurement,setting,value
"CCCS(=O)(=O)N[C@H]1C[C@@H](N(C)c2ncnc3[nH]ccc23)C1 [Abrocitinib, N-{cis-3-[Methyl(7H-pyrrolo[2,3-d]pyrimidin-4-yl)amino]cyclobutyl}propane-1-sulfo namide]",Induction via the PXR pathway,[1],weak signal
same,Effect of abrocitinib on the pharmacokinetics of OCs,CYP3A [2]; [8],lack of effect
same,Median Tmax of abrocitinib,[3],≤ 1 h
same,Effect of abrocitinib on the pharmacokinetics of midazolam,CYP3A [4]; [8],lack of effect
same,Effect of abrocitinib on the pharmacokinetics of efavirenz,CYP2B6,lack of effect
same,Share of abrocitinib metabolism by CYP2C19,CYP2C19 [5],approximately 53%
same,Overall safety and tolerability,Safety,generally safe and well tolerated
CN(c1ncnc2[nH]ccc12)[C@H]1C[C@@H](NS(=O)(=O)CCCO)C1 [M1],TDI of CYP2C19 in the absence of NADPH,CYP2C19 [6],weak TDI
same,TDI of CYP2C19 in the presence of NADPH,CYP2C19 [6],weak TDIs
same,Reversible inhibition of CYP1A2/2B6/2C19/3A,CYP1A2/2B6/2C19/3A,no reversible inhibition
same,TDI of CYP3A in the absence of NADPH,CYP3A4/5,weak TDI
same,TDI of CYP3A after 30-min preincubation,CYP3A4/5,weak TDI
same,TDI of CYP3A in the presence of NADPH,CYP3A4/5,weak TDIs
"COc1ccc2[nH]c([S+]([O-])Cc3ncc(C)c(OC)c3C)nc2c1 (centres unmarked) [Omeprazole, omeprazole]",Increase of omeprazole AUCinf,CYP2C19 [7]; [9],approximately 2.9 fold
same,Increase of omeprazole Cmax,CYP2C19 [7]; [9],~2.3 fold
same,Increase of omeprazole Cmax,CYP2C19 [7]; with multiple doses of abrocitinib 200 mg QD,~134%
"C#C[C@]1(O)CC[C@H]2[C@@H]3CCC4=CC(=O)CC[C@@H]4[C@H]3CC[C@@]21CC [Levonorgestrel, levonorgestrel]",Change of adjusted geometric mean AUClast,CYP3A [2]; [10],did not change
same,Decrease of adjusted geometric mean Cmax,CYP3A [2]; [10],approximately 14%
"Cn1c(=O)c2c(ncn2C)n(C)c1=O [Caffeine, caffeine]",Increase of caffeine AUCinf,CYP1A2,1.4 fold
"Cc1ncc2n1-c1ccc(Cl)cc1C(c1ccccc1F)=NC2 [Midazolam, midazolam]",Decrease of adjusted geometric mean AUCinf of midazolam,CYP3A [4]; [11],approximately 7.7%
same,Decrease of adjusted geometric mean Cmax of midazolam,CYP3A [4]; [11],~6.5%
same,Decrease of adjusted geometric mean AUCinf of midazolam,CYP3A [4]; [12],approximately 15.7%
same,Decrease of adjusted geometric mean Cmax of midazolam,CYP3A [4]; [12],~13.7%
CC(O)CS(=O)(=O)N[C@H]1C[C@@H](N(C)c2ncnc3[nH]ccc23)C1 (some centres unmarked) [M2],TDI of CYP2C19 in the absence of NADPH,CYP2C19 [6],weak TDI
same,TDI of CYP2C19 in the presence of NADPH,CYP2C19 [6],weak TDIs
same,Reversible inhibition of CYP1A2/2B6/2C19/3A,CYP1A2/2B6/2C19/3A,no reversible inhibition
same,TDI of CYP3A in the absence of NADPH,CYP3A4/5,weak TDI
same,TDI of CYP3A after 30-min preincubation,CYP3A4/5,weak TDI
same,TDI of CYP3A in the presence of NADPH,CYP3A4/5,weak TDIs
